For test [1], the system named is K562 (human chronic myeloblastic leukemia). Put plainly: In vitro cytotoxic activity, Calcein AM, three days. Type of test: cell-based. To be noted: read-out: K-562 IC50. As to the method:
(§1) We have been using the following cell lines: HELA (human cervical carcinoma), MCF7 (human breast adenocarcinoma), NIH 3T3 (mouse fibroblasts), HOS (human osteogenic sarcoma), HL 60 (human promyelocytic leukemia), G 361 (human malignant melanoma), K562 (human chronic myeloblastic leukemia), CEM (human lymphoblastoid leukaemia). Tested drugs were added to the cell cultures in six different concentration and kept at 37° C. and 5% CO2 for three days. All cell lines were grown in DMBM medium (Gibco BRL) supplemented with 10% (v/v) fetal bovine serum and L-glutamine and maintained at 37° C. in a humidified atmosphere with 5% CO2. 10^4 cells were seeded into each well of 96 well plate, allowed to stabilize for at least 2 h and then tested compounds were added at various concentrations ranging from 200 to 0.2 μM in triplicates. Three days after drug addition Calcein AM solution (Molecular Probes) was added and let to enter the cells for 1 hour. Fluorescence of viable cells was quantified employing Fluoroskan Ascent (Microsystems).

Test [2] has as its system MCF7 (human breast adenocarcinoma). The test is described as above. Type of test: cell-based. How it is done: as §1
Test [3] deals with T1, CDK1 (p34^cdc2, cyclin B) (Homo sapiens, UniProt P06493).
T1 construct: made in house; host or cells: Sf9 insect cells (baculovirus co-infection)
T1 sequence (P06493 whole entry, species assumed): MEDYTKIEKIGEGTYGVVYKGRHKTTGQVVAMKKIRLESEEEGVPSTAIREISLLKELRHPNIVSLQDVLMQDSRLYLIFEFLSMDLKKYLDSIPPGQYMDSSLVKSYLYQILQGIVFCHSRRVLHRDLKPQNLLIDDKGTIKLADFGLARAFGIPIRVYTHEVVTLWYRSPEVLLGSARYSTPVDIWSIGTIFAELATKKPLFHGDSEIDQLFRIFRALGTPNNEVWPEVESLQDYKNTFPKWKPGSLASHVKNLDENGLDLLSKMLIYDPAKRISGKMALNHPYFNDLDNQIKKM
T1 sequence (P14635 whole entry partner, species assumed): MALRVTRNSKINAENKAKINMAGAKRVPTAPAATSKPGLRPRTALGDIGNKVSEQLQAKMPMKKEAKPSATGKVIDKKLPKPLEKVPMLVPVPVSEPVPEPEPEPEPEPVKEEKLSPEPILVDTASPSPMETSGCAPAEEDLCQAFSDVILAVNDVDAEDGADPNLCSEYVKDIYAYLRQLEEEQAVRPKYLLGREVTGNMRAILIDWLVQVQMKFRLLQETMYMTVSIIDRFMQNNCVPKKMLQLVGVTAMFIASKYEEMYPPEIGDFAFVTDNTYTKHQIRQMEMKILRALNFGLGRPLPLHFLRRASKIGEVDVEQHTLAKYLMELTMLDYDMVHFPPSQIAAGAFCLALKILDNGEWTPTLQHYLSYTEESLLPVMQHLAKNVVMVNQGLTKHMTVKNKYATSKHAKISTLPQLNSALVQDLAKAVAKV
Put plainly: CDK inhibition assay, p34^cdc2 kinase, histone H1 phosphorylation. Type of test: biochemical. To be noted: 15 μM ATP, histone H1, 30° C. How it is done: The controls contain suitable dilutions of DMSO.
2-glycerolphosphate, 1 mM NaF, 1 mM DTT

Test [4] addresses CDK2 (p33^cdk2, cyclin E) (Homo sapiens, UniProt P24941). Put plainly: CDK inhibition assay, p33^cdk2 kinase, histone H1 phosphorylation.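 Further: Baculovirus-expressed kinase/cyclin complex from Sf9 cell extract, 10 min at 30 °C, phosphoproteins separated by SDS gel and quantified by image analysis, activity relative to DMSO control.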
Description: Cyclin-dependent kinases (p34^cdc2, p33^cdk2) and cyclins (cyclin B, E) are produced in Sf9 insect cells coinfected with appropriate baculoviral constructs. The cells are harvested 68-72 hrs post infection in lysis buffer for 30 min on ice and the soluble fraction is recovered by centrifugation at 14.000 g for 10 min. The protein extract is stored at −80° C.
Lysis buffer: 50mM Tris pH 7.4, 150mM NaCl, 5 mM EDTA, 20 mM NaF, 1% Tween, 1 mM DTT, 0.1 mM PMSF, leupeptine, aprotonine.
To carry out experiments on kinetics under linear conditions, the final point test system for kinase activity measurement is used. The kinase is added to reaction mixture in such a way as to obtain linear activity with respect to the concentration of enzyme and with respect to time.
Kinase activity is determined at 30° C. in the kinase buffer.
Tested compounds are usually dissolved to 100 mM solutions in DMSO, final concentration of DMSO in reaction mixture never exceeds 1%. The controls contain suitable dilutions of DMSO.
After 10 min, addition 3×SDS sample buffer stops the incubations. Phosphorylated proteins are separated electrophoretically using 10% SDS polyacrylamide gel. The measurement of kinase activity is done using digital image analysis.
The kinase activity is expressed as a percentage of maximum activity, the apparent inhibition constants are determined by graphic analysis.
Kinase buffer: 50 mM Hepes pH 7.4, 10 mM MgCl2, 5 mM EGTA, 10 mM

Turning to `COc1cccc(CNc2ncnc3c(C(C)C)n[nH]c23)c1O`, the IC50 – broadly, the concentration that gives 50% inhibition – in test [1] is 0.8 µM; in test [2] it was 0.6 µM.
The matching figures for `COc1ccc(CNc2ncnc3c(C(C)C)n[nH]c23)c(O)c1`: 0.5 µM and 0.2 µM.
On to `COc1ccc(O)c(CNc2ncnc3c(C(C)C)n[nH]c23)c1`, for which the 50% inhibitory concentration (IC50) is 1.2 µM in test [1] and 0.9 µM in test [2].
The matching figures for `CC(C)c1n[nH]c2c(NCc3ccccc3N)ncnc12` [2-aminobenzylamino / isopropyl]: 2.1 µM and 0.8 µM.
Consider `CCc1n[nH]c2c(NCc3ccccc3Br)ncnc12` [2-bromobenzylamino / ethyl], for which the IC50 in test [1] is 60 µM; in test [2], 54 µM.
Consider `Cc1n[nH]c2c(NCc3ccccc3Br)ncnc12` [2-bromobenzylamino / methyl], for which the figures for the IC50 in test [1] and in test [2] were 68 µM and 56 µM, respectively.
Consider `CCc1n[nH]c2c(NCc3ccccc3Cl)ncnc12` [2-chlorobenzylamino / ethyl], for which the IC50 in test [3] and in test [4] was 12 µM each time.
With `CCc1n[nH]c2c(NCc3ccccc3C)ncnc12` [2-methylbenzylamino / ethyl], the IC50 in test [3] was 15 µM; in test [4] it was 14 µM.
`Cc1ccccc1CNc1ncnc2c(C)n[nH]c12` [2-methylbenzylamino / methyl]: the IC50 in test [3] was found to be 18 µM; in test [4] it was 17 µM.
The matching figures for `CCc1n[nH]c2c(Nc3ccc(Cl)c(N)c3)ncnc12` [3-amino-4-chloroanilino / ethyl]: 23 µM and 22 µM.
The matching figures for `Cc1n[nH]c2c(Nc3ccc(Cl)c(N)c3)ncnc12` [3-amino-4-chloroanilino / methyl]: 27 µM and 28 µM.
As for `CCc1n[nH]c2c(Nc3ccc(Cl)c(C(=O)O)c3)ncnc12` [3-carboxy-4-chloroanilino / ethyl], the IC50 in test [3] turned out to be 38 µM; in test [4], 40 µM.
The matching figures for `Cc1n[nH]c2c(Nc3ccc(Cl)c(C(=O)O)c3)ncnc12` [3-carboxy-4-chloroanilino / methyl]: 24 µM and 29 µM.
For the compound `CCc1n[nH]c2c(Nc3ccc(O)c(C(=O)O)c3)ncnc12` [3-carboxy-4-hydroxyanilino / ethyl], the IC50 was determined as 24 µM in test [3] and 22 µM in test [4].
Take `Cc1n[nH]c2c(Nc3ccc(O)c(C(=O)O)c3)ncnc12` [3-carboxy-4-hydroxyanilino / methyl]: the IC50 is 34 µM in test [3] and 40 µM in test [4].
Take `CCc1n[nH]c2c(Nc3ccc(N)c(Cl)c3)ncnc12` [3-chloro-4-aminoanilino / ethyl]: the IC50 was determined as 35 µM in test [3] and 28 µM in test [4].
With `CCc1n[nH]c2c(Nc3ccc(C(=O)O)c(Cl)c3)ncnc12` [3-chloro-4-carboxyanilino / ethyl], the IC50 in test [3] stood at 36 µM; in test [4], 32 µM.
On to `Cc1n[nH]c2c(Nc3ccc(C(=O)O)c(Cl)c3)ncnc12` [3-chloro-4-carboxyanilino / methyl], for which the figures for the half-inhibitory concentration (IC50) in test [3] and in test [4] were 25 µM and 28 µM, respectively.
`CCc1n[nH]c2c(Nc3cc(N)cc(Cl)c3)ncnc12` [3-chloro-5-aminoanilino / ethyl]: the values for the IC50 in test [3] and in test [4] were 20 µM and 15.5 µM, respectively.
Turning to `Cc1n[nH]c2c(Nc3cc(N)cc(Cl)c3)ncnc12` [3-chloro-5-aminoanilino / methyl], the values for the IC50 in test [3] and in test [4] were 19 µM and 24 µM, respectively.
In the case of `CCc1n[nH]c2c(NCc3cccc(Cl)c3)ncnc12` [3-chlorobenzylamino / ethyl], the figures for the IC50 in test [3] and in test [4] were 9.7 µM and 10.2 µM, respectively.
For the compound `Cc1n[nH]c2c(NCc3cccc(Cl)c3)ncnc12` [3-chlorobenzylamino / methyl], the IC50 in test [3] amounted to 8.8 µM; in test [4], 9.4 µM.
For `CCc1n[nH]c2c(NCc3ccc(OC)c(O)c3)ncnc12` [3-hydroxy-4-methoxybenzylamino / ethyl], the IC50 is 72 µM in test [1] and 52 µM in test [2].
Consider `COc1ccc(CNc2ncnc3c(C)n[nH]c23)cc1O` [3-hydroxy-4-methoxybenzylamino / methyl], for which the IC50 in test [1] is 79 µM; in test [2], 58 µM.
Consider `CCc1n[nH]c2c(NCc3cccc(C)c3)ncnc12` [3-methylbenzylamino / ethyl], for which the IC50 in test [3] was determined as 18 µM; in test [4], 17 µM.
For `Cc1cccc(CNc2ncnc3c(C)n[nH]c23)c1` [3-methylbenzylamino / methyl], the IC50 came out at 28 µM in test [3] and 31 µM in test [4].
On to `CCc1n[nH]c2c(NC3CCC(N)CC3)ncnc12` (stereo not shown) [4-aminocyclohexylamino / ethyl], for which the IC50 in test [1] is 110 µM; in test [2], 71 µM.
The matching figures for `Cc1n[nH]c2c(NC3CCC(N)CC3)ncnc12` (stereo not shown) [4-aminocyclohexylamino / methyl]: 115 µM and 75 µM.
Take `CCc1n[nH]c2c(Nc3ccc(Br)cc3)ncnc12` [4-bromoanilino / ethyl]: the IC50 in test [3] was 22 µM; in test [4], 18 µM.
Turning to `Cc1n[nH]c2c(Nc3ccc(Br)cc3)ncnc12` [4-bromoanilino / methyl], the values for the IC50 in test [3] and in test [4] were 16 µM and 18 µM, respectively.
The matching figures for `CCc1n[nH]c2c(Nc3ccc(Cl)cc3)ncnc12` [4-chloroanilino / ethyl]: 14 µM and 16 µM.
In the case of `Cc1n[nH]c2c(Nc3ccc(Cl)cc3)ncnc12` [4-chloroanilino / methyl], the IC50 in test [3] worked out at 26 µM; in test [4], 28 µM.
As for `CCc1n[nH]c2c(NCc3ccc(Cl)cc3)ncnc12` [4-chlorobenzylamino / ethyl], the concentration for half-maximal inhibition (IC50) in test [3] was 26 µM; in test [4], 19 µM.
Regarding `Cc1n[nH]c2c(NCc3ccc(Cl)cc3)ncnc12` [4-chlorobenzylamino / methyl], the results for the IC50 in test [3] and in test [4] were 20 µM and 18 µM, respectively.
As for `C=CCNc1ncnc2c(CC)n[nH]c12` [allylamino / ethyl], the figures for the IC50 in test [3] and in test [4] were 25 µM and 29 µM, respectively.
On to `C=CCNc1ncnc2c(C)n[nH]c12` [allylamino / methyl], for which the results for the IC50 in test [3] and in test [4] were 42 µM and 48 µM, respectively.
With `CCc1n[nH]c2c(Nc3ccccc3)ncnc12` [anilino / ethyl], the IC50 in test [3] is 14 µM; in test [4], 20 µM.
In the case of `Cc1n[nH]c2c(Nc3ccccc3)ncnc12` [anilino / methyl], the IC50 in test [3] was determined as 22 µM; in test [4], 21 µM.
The matching figures for `CCc1n[nH]c2c(NC3CCCCC3)ncnc12` [cyclohexylamino / ethyl]: 39 µM and 42 µM.
The matching figures for `Cc1n[nH]c2c(NC3CCCCC3)ncnc12` [cyclohexylamino / methyl]: 34 µM and 32 µM.
As for `CCc1n[nH]c2c(NC3CCCC3)ncnc12` [cyclopentylamino / ethyl], the IC50 in test [3] and in test [4] was 32 µM each time.
As to `Cc1n[nH]c2c(NC3CCCC3)ncnc12` [cyclopentylamino / methyl], the results for the IC50 in test [3] and in test [4] were 29 µM and 46 µM, respectively.
Regarding `CCc1n[nH]c2c(NCC=C(C)C)ncnc12` [isopentenylamino / ethyl], the IC50 was found to be 45 µM in test [3] and 41 µM in test [4].
`CC(C)=CCNc1ncnc2c(C)n[nH]c12` [isopentenylamino / methyl]: the half-inhibitory concentration (IC50) in test [3] turned out to be 45 µM; in test [4], 44 µM.

The record behind these values is US20070167466A1, “"Pyrazolo [4,3-d]pyrimidines, processes for their preparation and methods of use"” (priority 2003, published 2007).
